Seven compounds from ChEMBL document CHEMBL5113400, “Design, synthesis, and biological evaluation of trizole-based heteroaromatic derivatives as Bcr-Abl kinase inhibitors” (Eur J Med Chem, 2022) can be followed below.

Assay [1] has as its target Bcr/Abl fusion protein (Homo sapiens, UniProt P00519). The assay is described as follows: Inhibition of wild type Bcr-Abl (unknown origin) incubated for 1 hr in presence of ATP by ADP-Glo kinase assay. Format: protein assay.
In assay [2] the target is Bcr/Abl fusion protein (Homo sapiens, UniProt P00519, T315I). As to the kind of experiment: Inhibition of Bcr-Abl T315I mutant (unknown origin) incubated for 1 hr in presence of ATP by ADP-Glo kinase assay. Format: protein assay.
Assay [3] concerns K562. As to the kind of experiment: Antiproliferative activity against human K562 cells assessed as inhibition of cell growth incubated for 48 hrs by MTT assay. Format: functional, cell-based. The following applies: K562, 48 h.
Assay [4] deals with BaF3. The assay is described as follows: Antiproliferative activity against mouse BaF3 cells expressing Bcr-Abl T315I mutant assessed as inhibition of cell growth at 30 uM incubated for 72 hrs by CellTiter-Glo luminescent assay. Format: functional.
The test system of assay [5] is K562/Adr. As to the kind of experiment: Antiproliferative activity against human Adriamycin-resistant K562/Adr cells assessed as inhibition of cell growth incubated for 48 hrs by MTT assay. The format is functional, cell-based.
For assay [6], the system named is K-562R. The assay is described as follows: Antiproliferative activity against human K-562R cells expressing Bcr-Abl T315I mutant assessed as inhibition of cell growth incubated for 48 hrs by MTT assay. The format is functional, cell-based.
The test system of assay [7] is BaF3. As to the kind of experiment: Antiproliferative activity against mouse BaF3 cells expressing wild type Bcr-Abl assessed as inhibition of cell growth incubated for 72 hrs by CellTiter-Glo luminescent assay. Format: functional, cell-based. The following applies: BaF3, 72 h.
Assay [8] relates to BaF3. As to the kind of experiment: Antiproliferative activity against mouse BaF3 cells assessed as inhibition of cell growth incubated for 72 hrs by CellTiter-Glo luminescent assay. The format is functional, cell-based. The following applies: BaF3, 72 h.

The structures appear in SMILES notation. pIC50: −log10 of the molar value.

For `C=CC(=O)Nc1ccc(-c2cn([C@@H]3CN[C@H](C(=O)Nc4ccc(Cl)c(C(F)(F)F)c4)C3)nn2)cn1`, the negative-log IC50 (pIC50) is 8.03 in assay [1], 6.85 in assay [2], 5.41 in assay [3] and 4.09 in assay [5]. Further, the inhibition at 30 µM in assay [4] was 26%.
Take `Cc1ccc(C(=O)Nc2ccc(CN3CCN(C)CC3)c(C(F)(F)F)c2)cc1C#Cc1cnc2cccnn12` [PONATINIB]: the pIC50 in assay [6] was 7.10.
Turning to `O=C(Nc1nc2ccc(-c3cn([C@@H]4CN[C@H](C(=O)Nc5ccc(Br)cc5)C4)nn3)nc2s1)C1CC1`, the negative logarithm of the IC50 (pIC50) in assay [1] was 7.98; in assay [2], 7.48; in assay [3], 5.09; in assay [5] it was 4.32. Further, the inhibition at 30 µM in assay [4] is 66.5%.
With `Nc1ccc(-c2cn([C@@H]3CN[C@H](C(=O)Nc4ccc(Cl)c(C(F)(F)F)c4)C3)nn2)cn1`, the pIC50 in assay [1] was 8.51; in assay [2], 6.52; in assay [3], 4.98; in assay [5] it was 4.60. In addition, the inhibition at 30 µM in assay [4] came out at 27.9%.
For `CC(=O)Nc1n[nH]c2cc(-c3cn([C@@H]4CN[C@H](C(=O)Nc5ccc(Br)cc5)C4)nn3)ccc12`, in that order: 8.23, 6.46, 5.42, 6.00 and 21.8%.
Consider `Cc1ccc(NC(=O)c2ccc(CN3CCN(C)CC3)cc2)cc1Nc1nccc(-c2cccnc2)n1` [IMATINIB], for which the negative-log IC50 (pIC50) in assay [3] was 5.96; in assay [5] it was 4.87; in assay [6], 4.03; in assay [7], 6.64; in assay [8], 5.00.
As to `CC(C)(C)OC(=O)N1C[C@@H](n2cc(-c3ccc4nc(N)sc4n3)nn2)C[C@H]1C(=O)Nc1ccc(F)c(F)c1`, the pIC50 in assay [1] is 7.76; in assay [2] it was 6.31; in assay [3] it was 4.58; in assay [5], 4.19. The inhibition at 30 µM in assay [4] is 16.8%.
